Test results from patent US20230240991A1, “PROTEOPHOSPHOLIPOSOMES HAVING HDL-TYPE VESICLES” (priority 2019, published 2023).

System: intact washed human platelets
Assay: [3H]PAF radioligand binding to intact washed human platelets after preincubation with plasma fractions (FIG. 1)
Method: Washed intact human thrombocytes are protected with plasma fractions from healthy volunteers (n=3, means, ±1 S.D.).
The thrombocytes are further preincubated with dialyzed, delipidated plasma proteins (0.36 mg/ml), with purified VLDL-fractions (0.9 mg/ml), with IDL (0.02 mg/ml), with HDL (0.5 mg/ml) or with delipidated HSA (0.25%).
Washed thrombocytes are tested in the presence of thioether-2-acyl-glycero-phosphatidylcholines (500 nM) compared to controls.

Substance | total binding of [3H]PAF (500 nM Thio-GPC, washed thrombocytes, compared to controls) | total [3H]PAF binding (500 nM unlabeled PAF, n=3, control 22±3 fmol) [fmol per 10^8 cells/ml]
thioether-2-acyl-glycero-phosphatidylcholines [Thio-GPC] | do not at all change | –
alkyl-acetyl-sn-glycero-phosphocholines [PAF] | – | 6±2
